# Measurements from patent publication US3984547A, “Veterinary feedstuffs” (Bayer Aktiengesellschaft, priority 1971, dated 1976).
# Read-outs that look alike come from different tables or passages of the source.
# Legend:
# [1] = system: Proteus vulgaris species; assay: MIC in vitro, plate test (agar), Table 1; assay type: cell-based; conditions: about 37° C, readings 24 and 48 h
# Description: (§1) The minimum inhibitory concentrations in vitro for some of the new compounds shown in Table 1 (MIC) were determined by the plate test in an agar medium of the following composition: |proteose peptone 10.0 g per liter |5.1 × 10^3 germs were inoculated per plate. […]. Readings were taken after 24 and 48 hours, and the incubation temperature was about 37° C.
# [2] = system: Pseudomonas aeruginosa Walter; assay: MIC in vitro, plate test (agar), Table 1; assay type: cell-based; conditions: about 37° C, readings 24 and 48 h
# Description: as §1
# [3] = system: Kletosiella pneumonia 8085; assay: MIC in vitro, plate test (agar), Table 1; assay type: cell-based; conditions: about 37° C, readings 24 and 48 h
# Description: as §1
# [4] = system: Staphylococcus aureus 133; assay: MIC in vitro, plate test (agar), Table 1; assay type: cell-based; conditions: about 37° C, readings 24 and 48 h
# Description: as §1
# [5] = system: Pseudomonas aeruginosa Bonn; assay: MIC in vitro, plate test (agar), Table 1; assay type: cell-based; conditions: about 37° C, readings 24 and 48 h
# Description: as §1
# [6] = system: Escherichia coli A 261; assay: MIC in vitro, plate test (agar), Table 1; assay type: cell-based; conditions: A261, about 37° C, readings 24 and 48 h
# Description: as §1
# [7] = system: Escherichia coli C 165; assay: MIC in vitro, plate test (agar), Table 1; assay type: cell-based; conditions: C165, about 37° C, readings 24 and 48 h
# Description: as §1
# [8] = system: Streptococcus pyogenes W; assay: MIC in vitro, plate test (agar), Table 1; assay type: cell-based; conditions: about 37° C, readings 24 and 48 h
# Description: as §1
# [9] = system: Klebsiella pneumonia 63; assay: MIC in vitro, plate test (agar), Table 1; assay type: cell-based; conditions: Klebsiella pneumoniae, about 37° C, readings 24 and 48 h
# Description: as §1
# [10] = system: Mycoplasma granularum; assay: MIC, series dilution test, measured in a PPLO medium, Table 2; assay type: cell-based; conditions: Acholeplasma granularum, 37° C, 18, 24 and 48 h, read-out: Minimum inhibitory concentration (MIC)
# Description: (§2) Minimum inhibitory concentration (MIC) in γ/ml of medium, measured by the series dilution test (complete medium), incubation temperatures: 37° C, determination of the MIC after 18, 24 and 48 hours.
# (§3) *)measured in a PPLO medium
# [11] = system: Mycoplasma gallisepticum; assay: as above; assay type: cell-based; conditions: Mycoplasmoides gallisepticum, 37° C, 18, 24 and 48 h, read-out: Minimum inhibitory concentration (MIC)
# Description: as §2, §3
# [12] = system: Streptococcus faecalis ATCC 8711; assay: MIC, series dilution test (complete medium), Table 2; assay type: cell-based; conditions: Enterococcus faecalis, ATCC8711, 37° C, 18, 24 and 48 h, read-out: Minimum inhibitory concentration (MIC)
# Description: as §2
# [13] = system: Escherichia coli 14; assay: as above; assay type: cell-based; conditions: 37° C, 18, 24 and 48 h, read-out: Minimum inhibitory concentration (MIC)
# Description: as §2
# [14] = system: Streptococcus faecalis ATCC 8699; assay: as above; assay type: cell-based; conditions: Enterococcus faecalis, ATCC8699, 37° C, 18, 24 and 48 h, read-out: Minimum inhibitory concentration (MIC)
# Description: as §2
# [15] = system: Neisseria catharalis N 1/41; assay: as above; assay type: cell-based; conditions: N1/41, 37° C, 18, 24 and 48 h, read-out: Minimum inhibitory concentration (MIC)
# Description: as §2
# [16] = system: Pseudomonas aeruginosa B; assay: as above; assay type: cell-based; conditions: 37° C, 18, 24 and 48 h, read-out: Minimum inhibitory concentration (MIC)
# Description: as §2
# [17] = system: Pseudomonas aeruginosa M; assay: as above; assay type: cell-based; conditions: 37° C, 18, 24 and 48 h, read-out: Minimum inhibitory concentration (MIC)
# Description: as §2
# [18] = system: Streptococcus faecalis ATCC 8698; assay: as above; assay type: cell-based; conditions: Enterococcus faecalis, ATCC8698, 37° C, 18, 24 and 48 h, read-out: Minimum inhibitory concentration (MIC)
# Description: as §2
# [19] = system: Streptococcus faecalis ATCC Blaschke; assay: as above; assay type: cell-based; conditions: Enterococcus faecalis, 37° C, 18, 24 and 48 h, read-out: Minimum inhibitory concentration (MIC)
# Description: as §2
# [20] = system: Streptococcus faecalis ATCC 8564; assay: as above; assay type: cell-based; conditions: Enterococcus faecalis, ATCC8564, 37° C, 18, 24 and 48 h, read-out: Minimum inhibitory concentration (MIC)
# Description: as §2
# [21] = system: Proteus vulgaris 1017; assay: as above; assay type: cell-based; conditions: 37° C, 18, 24 and 48 h, read-out: Minimum inhibitory concentration (MIC)
# Description: as §2
# [22] = system: Streptococcus faecalis ATCC species; assay: as above; assay type: cell-based; conditions: Enterococcus faecalis, 37° C, 18, 24 and 48 h, read-out: Minimum inhibitory concentration (MIC)
# Description: as §2
# [23] = system: Streptococcus faecalis ATCC 8580; assay: as above; assay type: cell-based; conditions: Enterococcus faecalis, ATCC8580, 37° C, 18, 24 and 48 h, read-out: Minimum inhibitory concentration (MIC)
# Description: as §2
# [24] = system: Proteus mirabilis 2935; assay: as above; assay type: cell-based; conditions: 37° C, 18, 24 and 48 h, read-out: Minimum inhibitory concentration (MIC)
# Description: as §2
# [25] = system: Streptococcus faecalis ATCC B. H.; assay: as above; assay type: cell-based; conditions: Enterococcus faecalis, 37° C, 18, 24 and 48 h, read-out: Minimum inhibitory concentration (MIC)
# Description: as §2
# [26] = system: Staphylococcus aureus 133; assay: as above; assay type: cell-based; conditions: 37° C, 18, 24 and 48 h, read-out: Minimum inhibitory concentration (MIC)
# Description: as §2
# [27] = system: Escherichia coli A 261; assay: as above; assay type: cell-based; conditions: A261, 37° C, 18, 24 and 48 h, read-out: Minimum inhibitory concentration (MIC)
# Description: as §2
# [28] = system: Staphylococcus aureus 7705; assay: as above; assay type: cell-based; conditions: 37° C, 18, 24 and 48 h, read-out: Minimum inhibitory concentration (MIC)
# Description: as §2
# [29] = system: Staphylococcus aureus BRL; assay: as above; assay type: cell-based; conditions: 37° C, 18, 24 and 48 h, read-out: Minimum inhibitory concentration (MIC)
# Description: as §2
# [30] = system: Mycobacterium tuberculosis H 37 RV; assay: as above; assay type: cell-based; conditions: H37RV, 37° C, 18, 24 and 48 h, read-out: Minimum inhibitory concentration (MIC)
# Description: as §2
# [31] = system: Klebsiella ATCC 10031; assay: as above; assay type: cell-based; conditions: ATCC10031, 37° C, 18, 24 and 48 h, read-out: Minimum inhibitory concentration (MIC)
# Description: as §2
# [32] = system: Streptococcus faecalis ATCC 9700; assay: as above; assay type: cell-based; conditions: Enterococcus faecalis, ATCC9700, 37° C, 18, 24 and 48 h, read-out: Minimum inhibitory concentration (MIC)
# Description: as §2
# [33] = system: Escherichia coli C 165; assay: as above; assay type: cell-based; conditions: C165, 37° C, 18, 24 and 48 h, read-out: Minimum inhibitory concentration (MIC)
# Description: as §2
# [34] = system: Proteus mirabilis G; assay: as above; assay type: cell-based; conditions: 37° C, 18, 24 and 48 h, read-out: Minimum inhibitory concentration (MIC)
# Description: as §2
# [35] = system: Salmonella paratyphii BB II; assay: as above; assay type: cell-based; conditions: 37° C, 18, 24 and 48 h, read-out: Minimum inhibitory concentration (MIC)
# Description: as §2
# [36] = system: Pseudomonas aeruginosa W; assay: as above; assay type: cell-based; conditions: 37° C, 18, 24 and 48 h, read-out: Minimum inhibitory concentration (MIC)
# Description: as §2
# [37] = system: Streptococcus faecalis ATCC liquef.; assay: as above; assay type: cell-based; conditions: Enterococcus faecalis, 37° C, 18, 24 and 48 h, read-out: Minimum inhibitory concentration (MIC)
# Description: as §2
# [38] = system: Escherichia coli 2; assay: as above; assay type: cell-based; conditions: 37° C, 18, 24 and 48 h, read-out: Minimum inhibitory concentration (MIC)
# Description: as §2
# [39] = system: Escherichia coli 183/58; assay: as above; assay type: cell-based; conditions: 37° C, 18, 24 and 48 h, read-out: Minimum inhibitory concentration (MIC)
# Description: as §2
# [40] = system: Streptococcus faecalis ATCC durans; assay: as above; assay type: cell-based; conditions: Enterococcus faecalis, 37° C, 18, 24 and 48 h, read-out: Minimum inhibitory concentration (MIC)
# Description: as §2
# [41] = system: Klebsiella 63; assay: as above; assay type: cell-based; conditions: 37° C, 18, 24 and 48 h, read-out: Minimum inhibitory concentration (MIC)
# Description: as §2
# [42] = system: Proteus vulgaris 3400; assay: as above; assay type: cell-based; conditions: 37° C, 18, 24 and 48 h, read-out: Minimum inhibitory concentration (MIC)
# Description: as §2
# [43] = system: Corynebacterium diphteriae gravis; assay: as above; assay type: cell-based; conditions: 37° C, 18, 24 and 48 h, read-out: Minimum inhibitory concentration (MIC)
# Description: as §2
# [44] = system: Mycoplasma gallisepticum; assay: as above; assay type: cell-based; conditions: Mycoplasmoides gallisepticum, 37° C, 18, 24 and 48 h, read-out: Minimum inhibitory concentration (MIC)
# Description: as §2
# [45] = system: Streptococcus faecalis ATCC 13; assay: as above; assay type: cell-based; conditions: Enterococcus faecalis, ATCC13, 37° C, 18, 24 and 48 h, read-out: Minimum inhibitory concentration (MIC)
# Description: as §2
# [46] = system: Klebsiella K 10; assay: as above; assay type: cell-based; conditions: K10, 37° C, 18, 24 and 48 h, read-out: Minimum inhibitory concentration (MIC)
# Description: as §2
# [47] = system: Escherichia coli 55 B 5; assay: as above; assay type: cell-based; conditions: 55B5, 37° C, 18, 24 and 48 h, read-out: Minimum inhibitory concentration (MIC)
# Description: as §2
# [48] = system: Staphylococcus aureus 133; assay: ED100 in mice after intraperitoneal infection, Table 3; assay type: in vivo; conditions: read-out: effective 100% dose (ED100)
# Description: (§4) In animal experiments on mice, the effective 100% dose (ED100) in mg/Kg was determined for certain compounds of the invention after intraperitoneal infection and subcutaneous (s.c.) or oral (p.o.) administration of the preparation.
# [49] = system: Escherichia coli C 165; assay: as above; assay type: in vivo; conditions: read-out: effective 100% dose (ED100)
# Description: as §4
compound,measurement,setting,value
NC(=O)NN=Cc1c(C(=O)O)[n+]([O-])c2ccccc2[n+]1[O-] [Example 12],MIC,[1],150 µg/mL
COC(=O)NN=Cc1c(C(=O)O)[n+]([O-])c2ccccc2[n+]1[O-] [Example 13],MIC,[2],100 µg/mL
same,MIC,[3],20 µg/mL
same,MIC,[4],10 µg/mL
same,MIC,[5],100 µg/mL
same,MIC,[6],20 µg/mL
same,MIC,[7],50 µg/mL
same,MIC,[8],100 µg/mL
same,MIC,[9],100 µg/mL
same,MIC,[1],10 µg/mL
same,MIC,[10],3 µg/mL
same,MIC,[11],6 µg/mL
same,MIC,[12],50 µg/mL
same,MIC,[13],12 to 25 µg/mL
same,MIC,[14],100 µg/mL
same,MIC,[15],6 µg/mL
same,MIC,[16],25 µg/mL
same,MIC,[17],25 µg/mL
same,MIC,[18],100 µg/mL
same,MIC,[19],6 to 25 µg/mL
same,MIC,[20],100 µg/mL
same,MIC,[21],17 µg/mL
same,MIC,[22],100 µg/mL
same,MIC,[23],50 µg/mL
same,MIC,[24],12 µg/mL
same,MIC,[25],100 µg/mL
same,MIC,[26],1 µg/mL
same,MIC,[27],25 to 50 µg/mL
same,MIC,[28],12 µg/mL
same,MIC,[29],12 µg/mL
same,MIC,[30],40 µg/mL
same,MIC,[31],1 to 2 µg/mL
same,MIC,[32],50 µg/mL
same,MIC,[33],50 to 100 µg/mL
same,MIC,[34],12 µg/mL
same,MIC,[35],12 µg/mL
same,MIC,[36],400 µg/mL
same,MIC,[37],50 µg/mL
same,MIC,[38],25 to 50 µg/mL
same,MIC,[39],6 to 12 µg/mL
same,MIC,[40],25 µg/mL
same,MIC,[41],50 µg/mL
same,MIC,[42],50 µg/mL
same,MIC,[43],5 to 10 µg/mL
same,MIC,[44],6 µg/mL
same,MIC,[45],25 µg/mL
same,MIC,[46],50 µg/mL
same,MIC,[47],3 to 6 µg/mL
same,ED100,"[48]; Staphylococcus aureus, 133, oral (p.c. [sic])",50 mg/kg
same,ED100,"[48]; Staphylococcus aureus, 133, sc, s.c.",25 mg/kg
same,ED100,"[49]; C165, oral (p.c. [sic])",25 mg/kg
same,ED100,"[49]; C165, sc, s.c.",25 mg/kg
CN(C)N=Cc1c(C(=O)O)[n+]([O-])c2ccccc2[n+]1[O-] [Example 14],ED100,"[49]; C165, oral (p.c. [sic])",100 mg/kg
same,ED100,"[49]; C165, sc, s.c.",50 mg/kg
